Read-outs that look alike come from different tables or passages of the source.
Experiments:
[1] = tested on: Saccharomyces cerevisiae; assay: checkerboard drug interaction (FICI, MICc); assay type: cell-based; set-up: INH MICc / INH MICc (ITR:INH) / INH MICc (KET:INH) / INH MICc (FLC:INH): unit not given beside the values;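 also: simplified diagonal checkerboard screen pairing antifungals with FPPS inhibitors, FICI calculated under the Loewe additivity model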
[2] = tested on: Candida albicans; assay: checkerboard drug interaction (FICI, MICc);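 as to all read-outs here: antifungal plus FPPS inhibitor combinations on Candida albicans tested by a simplified diagonal checkerboard screen, with FICI calculated under the Loewe additivity model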; assay type: cell-based; conditions: C. albicans; for INH FD (MIC-MICc fold decrease): fold decrease of inhibitor MIC
Procedure: (§1) Drug interactions between antifungals and FPPS inhibitors were investigated using a simplified checkerboard diagonal screening method ([45]). […] FICIs were determined according to the Loewe additivity model ([17]).

[3] = tested on: Cryptococcus deuterogattii; assay: checkerboard drug interaction (FICI, MICc);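 as to all read-outs here: simplified diagonal checkerboard screen pairing antifungal drugs with FPPS inhibitors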; assay type: cell-based; conditions: C. deuterogattii; for INH FD (MIC-MICc fold decrease): fold decrease of inhibitor MIC
Procedure: as §1

[4] = tested on: Cryptococcus deuterogattii; assay: MIC/MFC broth microdilution (CLSI); conditions: Cryptococcus deuterogattii;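 also: broth microdilution per CLSI M27-Ed4. MFC is the lowest concentration yielding no colonies when MIC broths are subcultured onto SDA plates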
Procedure: (§2) Antifungal susceptibility was determined by broth microdilution according to the CLSI guidelines described in M27-Ed4 ([16]). […] MFC was determined by back-plating drug-treated cultures from MIC broths onto SDA plates. The MFC was defined as the lowest concentration from which no colonies could be cultured.

[5] = tested on: Candida albicans; assay: MIC/MFC broth microdilution (CLSI); assay type: cell-based; conditions: Candida albicans SC5314
Procedure: as §2

[6] = tested on: Cryptococcus neoformans; assay: MIC/MFC broth microdilution (CLSI); conditions: Cryptococcus neoformans;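 also: susceptibility testing followed the CLSI M27-Ed4 broth microdilution document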
Procedure: as §2

[7] = tested on: Aspergillus flavus; assay: checkerboard drug interaction (FICI, MICc);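 also: simplified diagonal checkerboard screen pairing azole antifungals with FPPS inhibitors, FICI calculated under the Loewe additivity model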; assay type: cell-based; set-up: INH MICc (KET:INH) / INH MICc (FLC:INH): unit not given beside the values; conditions: A. flavus
[8] = tested on: Aspergillus flavus; assay: MIC/MFC broth microdilution (CLSI); conditions: ATCC204304
Procedure: as §2

[9] = tested on: Candida glabrata; assay: checkerboard drug interaction (FICI, MICc);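 as to all read-outs here: simplified diagonal checkerboard screen pairing antifungals with FPPS inhibitors, FICI calculated under the Loewe additivity model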; assay type: cell-based; conditions: C. glabrata; for INH FD (MIC-MICc fold decrease): fold decrease of inhibitor MIC
Procedure: as §1

[10] = tested on: HEK-293T cells; assay: MTT reduction cytotoxicity assay; assay type: cell-based; conditions: Homo sapiens, HEK-293T, 72 h, HEK-293T, MTT, 72 h; read-out: HEK IC50
[11] = tested on: Saccharomyces cerevisiae; assay: MIC/MFC broth microdilution (CLSI); assay type: cell-based; conditions: Saccharomyces cerevisiae S288c
Procedure: as §2

[12] = tested on: Aspergillus fumigatus; assay: checkerboard drug interaction (FICI, MICc); assay type: cell-based;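 also: simplified diagonal checkerboard screen pairing antifungals with FPPS inhibitors against Aspergillus fumigatus, with FICI calculated under the Loewe additivity model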
Procedure: as §1

[13] = tested on: Cryptococcus neoformans; assay: checkerboard drug interaction (FICI, MICc);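 as to all read-outs here: antifungal plus FPPS inhibitor pairs tested against Cryptococcus neoformans by simplified diagonal checkerboard screening, FICI computed under the Loewe additivity model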; assay type: cell-based; conditions: C. neoformans; for INH FD (MIC-MICc fold decrease): fold decrease of inhibitor MIC
Procedure: as §1

[14] = tested on: Trichophyton rubrum; assay: MIC/MFC broth microdilution (CLSI); conditions: Trichophyton rubrum
Procedure: as §2

[15] = tested on: eight fungal species; assay: MIC/MFC summary across the eight fungal species of Table 1; assay type: cell-based
Procedure: The antifungal activity of these compounds was evaluated according to CLSI guidelines ([16]).

[16] = tested on: eight fungal species; assay: checkerboard interaction with azoles, summary across the eight species; assay type: cell-based; conditions: geometric mean MIC in combination with azoles
Source text: Synergy between lipophilic FPPS inhibitors and azole antifungals was investigated by determining the fractional inhibitory concentration index (FICI) (Fig. 2; Table S1 Fig. S1) ([17]). […]. Derivatives PLA9 and 11, and PDA9, 11, and 12 antagonized azoles in C. albicans, C. neoformans, and C. deuterogattii, yet were largely synergistic in C. glabrata and S. cerevisiae. […].

[17] = tested on: Aspergillus fumigatus; assay: MIC/MFC broth microdilution (CLSI); conditions: ATCC204305
Procedure: as §2

[18] = tested on: Trichophyton rubrum; assay: checkerboard drug interaction (FICI, MICc);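 also: simplified diagonal checkerboard screen pairing azole antifungals with FPPS inhibitors, FICI calculated under the Loewe additivity model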; assay type: cell-based; conditions: T. rubrum
Procedure: as §1

[19] = tested on: Candida glabrata; assay: MIC/MFC broth microdilution (CLSI); conditions: Nakaseomyces glabratus, CBS138;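 also: broth microdilution following CLSI M27-Ed4, MFC taken as the lowest drug level yielding no growth once MIC wells were subcultured on SDA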
Procedure: as §2

[20] = Fractional Inhibitory Concentration Index, fluconazole + inhibitor
[21] = Fractional Inhibitory Concentration Index, itraconazole + inhibitor
[22] = Fractional Inhibitory Concentration Index, ketoconazole + inhibitor
[23] = MIC of the inhibitor in combination with fluconazole
[24] = MIC of the inhibitor in combination with itraconazole
[25] = MIC of the inhibitor in combination with ketoconazole
[26] = MIC-MICc fold decrease of fluconazole, negative = increase
[27] = MIC-MICc fold decrease of itraconazole, negative = increase
[28] = MIC-MICc fold decrease of ketoconazole, negative = increase
[29] = MIC-MICc fold decrease of the inhibitor, with fluconazole
[30] = MIC-MICc fold decrease of the inhibitor, with itraconazole
[31] = MIC-MICc fold decrease of the inhibitor, with ketoconazole
[32] = FLC:INH combination, MIC of the inhibitor in combination with FLC
[33] = FLC:INH combination, fold decrease of FLC MIC
[34] = ITR:INH combination, MIC of the inhibitor in combination with ITR
[35] = ITR:INH combination, fold decrease of ITR MIC
[36] = KET:INH combination, MIC of the inhibitor in combination with KET
[37] = KET:INH combination, fold decrease of KET MIC

CCCCCCCCCN1CCC[C@H]1C(=O)N[C@H](CC(=O)O)C(=O)O [PDA9]
0.31: FICI ([9]; FLC:INH combination)
4: KET FD (KET:INH) [1, 28] | INH FD (FLC:INH) [1, 29] | INH FD (KET:INH) [1, 31] | INH FD (MIC-MICc fold decrease) ([2]; FLC:INH combination) | INH FD (MIC-MICc fold decrease) ([2]; ITR:INH combination) | INH FD (MIC-MICc fold decrease) ([2]; KET:INH combination) | INH MICc (ITR:INH) [7, 24] | INH MICc [9, 32] | FLC FD (MIC-MICc fold decrease) [9, 33] | ITR FD (MIC-MICc fold decrease) [9, 35] | KET FD (MIC-MICc fold decrease) [9, 37] | ITR FD (ITR:INH) [12, 27] | INH FD (KET:INH) [18, 31]
52.3: GM fungal MICc [16]
0.25: FICI (ITR:INH) [12, 21]
> 128 µg/mL: MFC [4] | MIC [4] | MFC [5] | MIC [5] | MFC [6] | MIC [6] | MFC [8] | MIC [8] | MFC [11] | MIC [11] | MFC [14] | MIC [14] | MFC ([15]; across eight species, read-out: Geometric mean MFC) | MIC ([15]; geometric mean across eight species, read-out: GM fungal MIC) | MIC ([15]; read-out: Geometric mean MIC) | MFC [17] | MIC [17] | MFC [19] | MIC [19]
0.28: FICI ([9]; ITR:INH combination) | FICI ([9]; KET:INH combination)
0.5: FICI (KET:INH) [1, 22]
> 256 µg/mL: IC50 [10]
256: INH MICc [3, 32] | INH MICc [3, 34] | INH MICc [3, 36] | INH MICc (FLC:INH) [12, 23] | INH FD (ITR:INH) [12, 30] | INH MICc [13, 32] | INH MICc (FLC:INH) [18, 23] | INH MICc (ITR:INH) [18, 24]
< -4: FLC FD (MIC-MICc fold decrease) [2, 33] | ITR FD (MIC-MICc fold decrease) [2, 35] | KET FD (MIC-MICc fold decrease) [2, 37] | ITR FD (MIC-MICc fold decrease) [3, 35] | FLC FD (MIC-MICc fold decrease) [13, 33]
2.06: FICI (ITR:INH) [1, 21]
1.5: FICI (KET:INH) [12, 22]
≥4: FICI ([2]; FLC:INH combination) | FICI ([2]; ITR:INH combination) | FICI ([2]; KET:INH combination) | FICI ([3]; FLC:INH combination) | FICI ([3]; ITR:INH combination) | FICI ([13]; FLC:INH combination) | FICI ([13]; ITR:INH combination) | FICI ([13]; KET:INH combination)
-4: FLC FD (MIC-MICc fold decrease) [3, 33] | ITR FD (MIC-MICc fold decrease) [13, 35] | KET FD (MIC-MICc fold decrease) [13, 37]
3: FICI (FLC:INH) [18, 20]
-2: ITR FD (ITR:INH) [1, 27] | FLC FD (FLC:INH) [18, 26]
128: INH MICc (FLC:INH) [7, 23] | INH MICc (KET:INH) [7, 25] | INH FD (MIC-MICc fold decrease) ([9]; ITR:INH combination) | INH FD (MIC-MICc fold decrease) ([9]; KET:INH combination) | INH MICc (KET:INH) [12, 25] | INH MICc [13, 34] | INH MICc [13, 36]
1.02: FICI (ITR:INH) [7, 21]
16: INH MICc (ITR:INH) [1, 24] | INH FD (ITR:INH) [1, 30]
1: INH FD (MIC-MICc fold decrease) ([3]; FLC:INH combination) | INH FD (MIC-MICc fold decrease) ([3]; ITR:INH combination) | KET FD (MIC-MICc fold decrease) [3, 37] | INH FD (MIC-MICc fold decrease) ([3]; KET:INH combination) | FICI (FLC:INH) [7, 20] | FICI (KET:INH) [7, 22] | ITR FD (ITR:INH) [7, 27] | INH MICc (ITR:INH) [12, 24] | FLC FD (FLC:INH) [12, 26] | KET FD (KET:INH) [12, 28] | INH FD (FLC:INH) [12, 29] | INH FD (MIC-MICc fold decrease) ([13]; FLC:INH combination) | ITR FD (ITR:INH) [18, 27] | INH FD (FLC:INH) [18, 29] | INH FD (ITR:INH) [18, 30]
0.75: FICI (FLC:INH) [1, 20] | FICI (KET:INH) [18, 22]
64: INH MICc (FLC:INH) [1, 23] | INH MICc (KET:INH) [1, 25] | INH MICc [2, 32] | INH MICc [2, 34] | INH MICc [2, 36] | INH FD (ITR:INH) [7, 30] | INH FD (MIC-MICc fold decrease) ([9]; FLC:INH combination) | INH MICc (KET:INH) [18, 25]
2: FLC FD (FLC:INH) [1, 26] | FICI ([3]; KET:INH combination) | FLC FD (FLC:INH) [7, 26] | KET FD (KET:INH) [7, 28] | INH FD (FLC:INH) [7, 29] | INH FD (KET:INH) [7, 31] | INH MICc [9, 34] | INH MICc [9, 36] | FICI (FLC:INH) [12, 20] | INH FD (KET:INH) [12, 31] | INH FD (MIC-MICc fold decrease) ([13]; ITR:INH combination) | INH FD (MIC-MICc fold decrease) ([13]; KET:INH combination) | FICI (ITR:INH) [18, 21] | KET FD (KET:INH) [18, 28]

— paper PMC12892976, “Alkylation-based optimization of antifungal FPPS inhibitors yields a potent, broad-spectrum lipophilic zoledronate derivative” (mBio, 2025)
